Assay results: ChEMBL document CHEMBL4651402, “Screening of ~5500 FDA-approved drugs and clinical candidates for anti-SARS-CoV-2 activity” (2021)
pIC50: −log10 of the molar value. Structures can show the parent of a compound that is named as a salt.

Tested on: SARS-CoV-2
Assay: microbe, parasite or virus in culture
Conditions: Severe acute respiratory syndrome coronavirus 2, Vero C1008, 48 h; for IC50: read-out: pIC50 (converted)

Row | SMILES | pIC50 | IC50
1 | CCc1cnn2c(NCc3ccc[n+]([O-])c3)cc(N3CCCC[C@H]3CCO)nc12 [DINACICLIB] | < 4.70 | > 20 µM
2 | Cc1c(C(N)=O)cc([N+](=O)[O-])cc1[N+](=O)[O-] [DINITOLMIDE] | < 4.70 | > 20 µM
3 | CCCCC[C@H](O)/C=C/[C@H]1[C@H](O)CC(=O)[C@@H]1C/C=C\CCCC(=O)O [DINOPROSTONE] | < 4.70 | > 20 µM
4 | CCCCC[C@H](O)/C=C/[C@@H]1[C@@H](C/C=C\CCCC(=O)O)[C@@H](O)C[C@H]1O [DINOPROST] | < 4.70 | > 20 µM
5 | COc1ccc(-c2cc(=O)c3c(O)cc(O)cc3o2)cc1O [DIOSMETIN] | < 4.70 | > 20 µM
6 | c1ccc(C2(c3ccccc3)OCC(C3CCCCN3)O2)cc1 (centres undefined) [DIOXADROL] | < 4.70 | > 20 µM
7 | CCCCCCCCCC1(C)OCC(COC(N)=O)O1 (centres undefined) [DIOXAMATE] | < 4.70 | > 20 µM
8 | CCOC(=O)C(CCN1CCOCC1)(c1ccccc1)c1ccccc1 [DIOXAPHETYL BUTYRATE] | < 4.70 | > 20 µM
9 | COc1ccc(C(=O)c2ccccc2O)c(O)c1 [DIOXYBENZONE] | < 4.70 | > 20 µM
10 | O=c1c(-c2ccccc2)c1-c1ccccc1 [DIPHENCYPRONE] | < 4.70 | > 20 µM
11 | OC(CCCN1CCCCC1)(c1ccccc1)c1ccccc1 [DIPHENIDOL] | < 4.70 | > 20 µM
12 | CCOC(=O)C1(c2ccccc2)CCN(CCC(C#N)(c2ccccc2)c2ccccc2)CC1 [DIPHENOXYLATE] | < 4.70 | > 20 µM
13 | CNCC(O)c1ccc(OC(=O)C(C)(C)C)c(OC(=O)C(C)(C)C)c1 (centres undefined) [DIPIVEFRIN] | < 4.70 | > 20 µM
14 | CC(=O)Oc1ccccc1C(=O)Oc1ccccc1C(=O)O [DIPLOSALSALATE] | < 4.70 | > 20 µM
15 | CCOc1ccc(CC2=NCCc3cc(OC(C)C)c(OC(C)C)cc32)cc1OCC [DIPROTEVERINE] | < 4.70 | > 20 µM
16 | OCCN(CCO)c1nc(N2CCCCC2)c2nc(N(CCO)CCO)nc(N3CCCCC3)c2n1 [DIPYRIDAMOLE] | < 4.70 | > 20 µM
17 | CC[C@H]1OC(=O)[C@H](C)[C@@H](O[C@H]2C[C@@](C)(OC)[C@@H](O)[C@H](C)O2)[C@H](C)[C@@H](O[C@@H]2O[C@H](C)C[C@H](N(C)C)[C@H]2O)[C@](C)(O)C[C@@H](C)[C@@H]2N[C@@H](COCCOC)O[C@H]([C@H]2C)[C@]1(C)O [DIRITHROMYCIN] | < 4.70 | > 20 µM
18 | COC(=O)/C=C/C(=O)OCCN1C(=O)CCC1=O [DIROXIMEL FUMARATE] | < 4.70 | > 20 µM
19 | CC(C)N(CCC(CCN1CCCCC1)(C(N)=O)c1ccccc1Cl)C(C)C (centres undefined) [DISOBUTAMIDE] | < 4.70 | > 20 µM
20 | C[C@@H]1CC[C@@]2(OC1)O[C@H]1C[C@H]3[C@@H]4CC=C5C[C@@H](O)CC[C@]5(C)[C@H]4CC[C@]3(C)[C@H]1[C@@H]2C [DISOGENIN] | < 4.70 | > 20 µM
21 | CC(C)N(CCC(C(N)=O)(c1ccccc1)c1ccccn1)C(C)C (centres undefined) [DISOPYRAMIDE] | < 4.70 | > 20 µM

Row | SMILES | pIC50 | IC50
22 | Cc1cc(CCCCCCCOc2ccc(C3=NCCO3)cc2)on1 [DISOXARIL] | < 4.70 | > 20 µM
23 | OCCN(CCO)c1nc(-c2ccccc2)c(-c2ccccc2)o1 [DITAZOLE] | < 4.70 | > 20 µM
24 | CCN1/C(=C/C=C/C=C/c2sc3ccccc3[n+]2CC)Sc2ccccc21 [DITHIAZANINE IODIDE] | < 4.70 | > 20 µM
25 | CCN1C(=CC=CC=Cc2sc3ccccc3[n+]2CC)Sc2ccccc21 [DITHIAZANINE] | < 4.70 | > 20 µM
26 | CCN(CC)C(=S)S [DITIOCARB] | < 4.70 | > 20 µM
27 | CC(CN1CCN(CCOCCO)CC1)CN1c2ccccc2Sc2ccccc21 (centres undefined) [DIXYRAZINE] | < 4.70 | > 20 µM
28 | C[C@]12N[C@H](Cc3ccccc31)c1ccccc12 [DIZOCILPINE] | < 4.70 | > 20 µM
29 | c1cncc(C2CCCCN2)c1 (stereo not drawn) [DL-ANABASINE] | < 4.70 | > 20 µM
30 | CC(CCc1ccc(O)cc1)NCCc1ccc(O)c(O)c1 (centres undefined) [DOBUTAMINE] | < 4.70 | > 20 µM
31 | CC1=C(C)C(=O)C(CCCCC#CCCCC#CCO)=C(C)C1=O [DOCEBENONE] | < 4.70 | > 20 µM
32 | CC/C=C\C/C=C\C/C=C\C/C=C\C/C=C\C/C=C\CCC(=O)O [DOCONEXENT] | < 4.70 | > 20 µM
33 | CCCCCCCCCCCC(=O)O [DODECANOATE] | < 4.70 | > 20 µM
34 | CN(CCOc1ccc(NS(C)(=O)=O)cc1)CCc1ccc(NS(C)(=O)=O)cc1 [DOFETILIDE] | < 4.70 | > 20 µM
35 | C[C@@H]1CCO[C@H]2Cn3cc(C(=O)NCc4ccc(F)cc4F)c(=O)c(O)c3C(=O)N12 [DOLUTEGRAVIR] | < 4.70 | > 20 µM
36 | CCCCCCCCCCCC[N+](C)(C)CCOc1ccccc1 [DOMIPHEN] | < 4.70 | > 20 µM
37 | O=c1[nH]c2ccccc2n1CCCN1CCC(n2c(=O)[nH]c3cc(Cl)ccc32)CC1 [DOMPERIDONE] | < 4.70 | > 20 µM
38 | COc1cc(CC(C)N)c(OC)cc1C (centres undefined) [DOM] | < 4.70 | > 20 µM
39 | COc1cc2c(cc1OC)C(=O)C(CC1CCN(Cc3ccccc3)CC1)C2 (centres undefined) [DONEPEZIL] | < 4.70 | > 20 µM
40 | O=C(NCCc1ccc(O)c(O)c1)C12CC3CC(CC(C3)C1)C2 [DOPAMANTINE] | < 4.70 | > 20 µM
41 | NCCc1ccc(O)c(O)c1 [DOPAMINE] | < 4.70 | > 20 µM
42 | Cc1ccc(-n2nc(C(C)(C)C)cc2NC(=O)Nc2ccc(OCCN3CCOCC3)c3ccccc23)cc1 [DORAMAPIMOD] | < 4.70 | > 20 µM

Row | SMILES | pIC50 | IC50
43 | CCN[C@H]1C[C@H](C)S(=O)(=O)c2sc(S(N)(=O)=O)cc21 [DORZOLAMIDE] | < 4.70 | > 20 µM
44 | CCN1CC(CCN2CCOCC2)C(c2ccccc2)(c2ccccc2)C1=O (centres undefined) [DOXAPRAM] | < 4.70 | > 20 µM
45 | COc1cc2nc(N3CCN(C(=O)C4COc5ccccc5O4)CC3)nc(N)c2cc1OC (centres undefined) [DOXAZOSIN] | < 4.70 | > 20 µM
46 | Nc1ccn([C@H]2C[C@H](O)[C@@H](CO)O2)c(=O)n1 [DOXECITINE] | < 4.70 | > 20 µM
47 | Cn1c(=O)c2c(ncn2CC2OCCO2)n(C)c1=O [DOXOFYLLINE] | < 4.70 | > 20 µM
48 | CN(C)[C@@H](c1cccnc1)C1COCOC1 [DOXPICOMINE] | < 4.70 | > 20 µM
49 | Cc1cn([C@H]2C[C@H](O)[C@@H](CO)O2)c(=O)[nH]c1=O [DOXRIBTIMINE] | < 4.70 | > 20 µM
50 | C[C@H]1c2cccc(O)c2C(=O)C2=C(O)[C@]3(O)C(=O)C(C(N)=O)=C(O)[C@@H](N(C)C)[C@@H]3[C@@H](O)[C@@H]21 [DOXYCYCLINE] | < 4.70 | > 20 µM
51 | CN(C)CCOC(C)(c1ccccc1)c1ccccn1 (centres undefined) [DOXYLAMINE] | < 4.70 | > 20 µM
52 | CCN(CC)CCOC(=O)C(c1ccccc1)C1CCCCC1 (centres undefined) [DROFENINE] | < 4.70 | > 20 µM
53 | O=C(CCCN1CC=C(n2c(=O)[nH]c3ccccc32)CC1)c1ccc(F)cc1 [DROPERIDOL] | < 4.70 | > 20 µM
54 | OCC(O)CN1CCN(c2ccccc2)CC1 (centres undefined) [DROPROPIZINE] | < 4.70 | > 20 µM
55 | CCOc1ccc(/C=C2\NCCc3cc(OCC)c(OCC)cc32)cc1OCC [DROTAVERINE] | < 4.70 | > 20 µM
56 | Cc1cc(Nc2ccc(S(F)(F)(F)(F)F)cc2)n2nc(C(C)(F)F)nc2n1 [DSM-265] | < 4.70 | > 20 µM
57 | CN1CCN(Cc2ccc(Nc3ncc(Cl)c(Nc4ccccc4S(=O)(=O)N(C)C)n3)cc2)CC1 [DUBERMATINIB] | < 4.70 | > 20 µM
58 | OC[C@H]1NC[C@H](O)[C@@H](O)[C@@H]1O [DUVOGLUSTAT] | < 4.70 | > 20 µM
59 | CCCCOc1ccc(C(=O)CCN2CCCCC2)cc1 [DYCLONINE] | < 4.70 | > 20 µM
60 | CC(=O)[C@H]1CC[C@H]2[C@@H]3C=CC4=CC(=O)CC[C@@]4(C)[C@@H]3CC[C@]12C [DYDROGESTERONE] | < 4.70 | > 20 µM
61 | Cn1c(=O)c2c(ncn2CC(O)CO)n(C)c1=O (centres undefined) [DYPHYLLINE] | < 4.70 | > 20 µM
62 | CCc1occc(=O)c1O [E637] | < 4.70 | > 20 µM
